Results from the kinase profiling compilation of Christmann-Franck et al. (2016).

Each compound was assayed against CSNK1D (human) (UniProt P48730) (assay: radiometric filter-binding kinase assay, Kinase HotSpot). Conditions: compound 0.5 µM; ATP 10 µM.

SMILES | residual activity [%]
CCc1nc(-c2ccc(OC)cc2)[nH]c1-c1ccncc1 | 95.1
O=C(O)c1ccc2c3c1cccc3c(=O)n1c3ccccc3nc21 | 101
Cc1cc(Nc2nc(-c3ccccc3)nc3ccccc23)n[nH]1 | 96.7
N#Cc1c(NC(=O)c2cccc3ccccc23)sc2c1CCCC2 | 106

Each compound was assayed against PRKCD (human) (UniProt Q05655) in the same assay as above. Conditions: compound 0.5 µM; ATP 10 µM.
Sequence of PRKCD (human) (Q05655 whole entry, looked up): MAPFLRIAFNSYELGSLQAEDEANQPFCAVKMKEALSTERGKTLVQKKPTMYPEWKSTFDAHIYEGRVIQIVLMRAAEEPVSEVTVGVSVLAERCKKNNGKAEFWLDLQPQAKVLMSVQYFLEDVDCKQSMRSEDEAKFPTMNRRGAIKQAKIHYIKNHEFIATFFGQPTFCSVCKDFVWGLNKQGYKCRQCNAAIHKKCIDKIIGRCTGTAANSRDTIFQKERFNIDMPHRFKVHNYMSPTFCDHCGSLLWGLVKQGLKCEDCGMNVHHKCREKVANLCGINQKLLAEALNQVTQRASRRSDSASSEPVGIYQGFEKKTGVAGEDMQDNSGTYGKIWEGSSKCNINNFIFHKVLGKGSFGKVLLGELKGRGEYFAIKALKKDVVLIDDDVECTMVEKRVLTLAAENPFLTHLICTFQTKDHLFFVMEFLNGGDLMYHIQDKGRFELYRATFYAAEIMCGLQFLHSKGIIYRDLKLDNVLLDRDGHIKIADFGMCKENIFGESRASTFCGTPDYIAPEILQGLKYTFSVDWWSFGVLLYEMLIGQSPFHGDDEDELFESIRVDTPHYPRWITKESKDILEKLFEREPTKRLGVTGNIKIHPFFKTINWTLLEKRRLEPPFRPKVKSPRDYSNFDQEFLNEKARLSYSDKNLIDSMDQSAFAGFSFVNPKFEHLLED

SMILES | residual activity [%]
CCc1nc(-c2ccc(OC)cc2)[nH]c1-c1ccncc1 | 98.5
O=C(O)c1ccc2c3c1cccc3c(=O)n1c3ccccc3nc21 | 103
Cc1cc(Nc2nc(-c3ccccc3)nc3ccccc23)n[nH]1 | 91.3
N#Cc1c(NC(=O)c2cccc3ccccc23)sc2c1CCCC2 | 94.1

The compounds below were run against FGFR3 (human) (UniProt P22607) in the same assay as above. Conditions: compound 0.5 µM; ATP 10 µM.
Sequence of FGFR3 (human) (P22607 whole entry, looked up): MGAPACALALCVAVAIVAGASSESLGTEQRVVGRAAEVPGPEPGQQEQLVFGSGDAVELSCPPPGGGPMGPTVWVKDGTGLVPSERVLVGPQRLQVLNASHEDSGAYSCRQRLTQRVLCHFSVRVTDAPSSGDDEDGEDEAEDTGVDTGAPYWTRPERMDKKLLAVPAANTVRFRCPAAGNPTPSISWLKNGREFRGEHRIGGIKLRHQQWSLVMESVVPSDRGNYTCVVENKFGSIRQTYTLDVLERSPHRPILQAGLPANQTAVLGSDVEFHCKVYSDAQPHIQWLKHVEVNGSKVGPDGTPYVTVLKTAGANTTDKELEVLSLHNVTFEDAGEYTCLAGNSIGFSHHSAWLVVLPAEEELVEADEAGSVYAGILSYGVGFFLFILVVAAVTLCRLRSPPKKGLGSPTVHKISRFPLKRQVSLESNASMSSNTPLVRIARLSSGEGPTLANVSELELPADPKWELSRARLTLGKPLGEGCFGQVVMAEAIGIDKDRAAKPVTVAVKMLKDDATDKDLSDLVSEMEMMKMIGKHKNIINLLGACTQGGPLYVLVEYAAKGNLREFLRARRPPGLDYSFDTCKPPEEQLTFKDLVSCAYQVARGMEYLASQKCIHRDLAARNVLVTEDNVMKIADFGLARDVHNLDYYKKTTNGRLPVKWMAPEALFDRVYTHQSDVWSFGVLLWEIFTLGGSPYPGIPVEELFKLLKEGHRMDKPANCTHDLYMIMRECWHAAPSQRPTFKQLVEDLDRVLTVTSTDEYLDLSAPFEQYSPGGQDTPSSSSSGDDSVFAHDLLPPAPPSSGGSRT

SMILES | residual activity [%]
CCc1nc(-c2ccc(OC)cc2)[nH]c1-c1ccncc1 | 99.8
O=C(O)c1ccc2c3c1cccc3c(=O)n1c3ccccc3nc21 | 92.9
Cc1cc(Nc2nc(-c3ccccc3)nc3ccccc23)n[nH]1 | 71.7
N#Cc1c(NC(=O)c2cccc3ccccc23)sc2c1CCCC2 | 101

The compounds below were run against MAPKAPK3 (human) (UniProt Q16644) in the same assay as above. Conditions: compound 0.5 µM; ATP 10 µM.
Sequence of MAPKAPK3 (human) (Q16644 whole entry, looked up): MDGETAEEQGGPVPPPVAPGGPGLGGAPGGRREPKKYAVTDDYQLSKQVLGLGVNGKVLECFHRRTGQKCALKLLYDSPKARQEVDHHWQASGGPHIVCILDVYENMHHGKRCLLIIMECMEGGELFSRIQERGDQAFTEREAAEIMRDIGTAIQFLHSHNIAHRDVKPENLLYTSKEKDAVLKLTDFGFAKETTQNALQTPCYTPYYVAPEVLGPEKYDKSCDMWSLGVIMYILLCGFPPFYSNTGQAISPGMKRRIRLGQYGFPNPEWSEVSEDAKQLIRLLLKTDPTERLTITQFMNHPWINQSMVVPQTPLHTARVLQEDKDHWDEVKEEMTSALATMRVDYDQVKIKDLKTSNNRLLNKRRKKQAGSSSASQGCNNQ

SMILES | residual activity [%]
CCc1nc(-c2ccc(OC)cc2)[nH]c1-c1ccncc1 | 102
O=C(O)c1ccc2c3c1cccc3c(=O)n1c3ccccc3nc21 | 103
Cc1cc(Nc2nc(-c3ccccc3)nc3ccccc23)n[nH]1 | 81
N#Cc1c(NC(=O)c2cccc3ccccc23)sc2c1CCCC2 | 102

The compounds below were run against AURKA (human) (UniProt O14965) in the same assay as above. Conditions: compound 0.5 µM; ATP 10 µM.
Sequence of AURKA (human) (O14965 whole entry, looked up): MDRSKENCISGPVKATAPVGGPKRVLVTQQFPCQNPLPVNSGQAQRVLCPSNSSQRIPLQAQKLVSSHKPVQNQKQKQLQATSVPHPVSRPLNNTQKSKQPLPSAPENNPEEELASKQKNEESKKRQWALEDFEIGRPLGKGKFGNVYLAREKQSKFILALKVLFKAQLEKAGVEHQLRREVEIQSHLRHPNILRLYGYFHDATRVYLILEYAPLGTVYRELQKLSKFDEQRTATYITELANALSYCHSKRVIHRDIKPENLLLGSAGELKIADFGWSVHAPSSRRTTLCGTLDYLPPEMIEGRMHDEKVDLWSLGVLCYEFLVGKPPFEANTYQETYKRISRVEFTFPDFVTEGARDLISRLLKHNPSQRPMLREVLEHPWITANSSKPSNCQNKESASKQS

SMILES | residual activity [%]
CCc1nc(-c2ccc(OC)cc2)[nH]c1-c1ccncc1 | 93.7
O=C(O)c1ccc2c3c1cccc3c(=O)n1c3ccccc3nc21 | 78.6
Cc1cc(Nc2nc(-c3ccccc3)nc3ccccc23)n[nH]1 | 19.8
N#Cc1c(NC(=O)c2cccc3ccccc23)sc2c1CCCC2 | 101

What follows are compounds tested against GRK5 (human) (UniProt P34947) in the same assay as above. Conditions: compound 0.5 µM; ATP 10 µM.
Sequence of GRK5 (human) (P34947 whole entry, looked up): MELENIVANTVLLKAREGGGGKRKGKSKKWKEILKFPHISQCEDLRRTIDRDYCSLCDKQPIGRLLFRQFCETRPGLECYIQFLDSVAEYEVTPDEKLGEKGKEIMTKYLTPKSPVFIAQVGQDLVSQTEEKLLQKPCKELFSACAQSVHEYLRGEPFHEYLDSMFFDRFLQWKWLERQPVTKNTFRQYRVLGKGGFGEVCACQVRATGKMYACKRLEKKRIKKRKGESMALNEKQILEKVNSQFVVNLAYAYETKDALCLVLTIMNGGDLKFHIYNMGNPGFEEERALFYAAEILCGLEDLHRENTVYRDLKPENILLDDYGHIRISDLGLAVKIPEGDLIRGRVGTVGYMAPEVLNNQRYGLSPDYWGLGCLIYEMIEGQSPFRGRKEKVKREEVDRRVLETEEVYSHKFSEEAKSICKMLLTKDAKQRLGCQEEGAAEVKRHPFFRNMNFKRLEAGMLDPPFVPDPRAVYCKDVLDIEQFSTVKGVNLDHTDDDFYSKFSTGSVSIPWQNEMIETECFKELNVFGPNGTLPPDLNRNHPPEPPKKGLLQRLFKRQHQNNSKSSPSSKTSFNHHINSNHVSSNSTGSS

SMILES | residual activity [%]
CCc1nc(-c2ccc(OC)cc2)[nH]c1-c1ccncc1 | 107
O=C(O)c1ccc2c3c1cccc3c(=O)n1c3ccccc3nc21 | 97.1
Cc1cc(Nc2nc(-c3ccccc3)nc3ccccc23)n[nH]1 | 119
N#Cc1c(NC(=O)c2cccc3ccccc23)sc2c1CCCC2 | 98.2

The compounds below were run against ITK (human) (UniProt Q08881) in the same assay as above. Conditions: compound 0.5 µM; ATP 10 µM.
Sequence of ITK (human) (Q08881 whole entry, looked up): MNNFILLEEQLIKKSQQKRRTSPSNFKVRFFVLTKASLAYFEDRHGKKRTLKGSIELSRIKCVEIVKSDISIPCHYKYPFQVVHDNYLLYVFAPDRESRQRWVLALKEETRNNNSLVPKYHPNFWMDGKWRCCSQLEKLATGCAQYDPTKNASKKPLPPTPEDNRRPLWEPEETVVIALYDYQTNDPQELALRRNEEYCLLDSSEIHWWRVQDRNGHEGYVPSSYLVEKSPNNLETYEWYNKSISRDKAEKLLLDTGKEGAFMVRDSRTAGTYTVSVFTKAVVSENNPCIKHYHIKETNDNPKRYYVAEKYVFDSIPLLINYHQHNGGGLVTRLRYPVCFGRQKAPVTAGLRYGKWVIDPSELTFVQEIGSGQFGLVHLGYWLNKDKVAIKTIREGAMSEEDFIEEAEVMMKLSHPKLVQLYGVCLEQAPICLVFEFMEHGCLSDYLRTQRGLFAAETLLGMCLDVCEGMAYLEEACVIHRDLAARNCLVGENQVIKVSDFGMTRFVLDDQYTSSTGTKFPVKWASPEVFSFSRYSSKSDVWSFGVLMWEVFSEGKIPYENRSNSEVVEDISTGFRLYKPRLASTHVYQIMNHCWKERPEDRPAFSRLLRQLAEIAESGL

SMILES | residual activity [%]
CCc1nc(-c2ccc(OC)cc2)[nH]c1-c1ccncc1 | 97.4
O=C(O)c1ccc2c3c1cccc3c(=O)n1c3ccccc3nc21 | 97.7
Cc1cc(Nc2nc(-c3ccccc3)nc3ccccc23)n[nH]1 | 45.4
N#Cc1c(NC(=O)c2cccc3ccccc23)sc2c1CCCC2 | 101

The compounds below were run against PRKCE (human) (UniProt Q02156) in the same assay as above. Conditions: compound 0.5 µM; ATP 10 µM.
Sequence of PRKCE (human) (Q02156 whole entry, looked up): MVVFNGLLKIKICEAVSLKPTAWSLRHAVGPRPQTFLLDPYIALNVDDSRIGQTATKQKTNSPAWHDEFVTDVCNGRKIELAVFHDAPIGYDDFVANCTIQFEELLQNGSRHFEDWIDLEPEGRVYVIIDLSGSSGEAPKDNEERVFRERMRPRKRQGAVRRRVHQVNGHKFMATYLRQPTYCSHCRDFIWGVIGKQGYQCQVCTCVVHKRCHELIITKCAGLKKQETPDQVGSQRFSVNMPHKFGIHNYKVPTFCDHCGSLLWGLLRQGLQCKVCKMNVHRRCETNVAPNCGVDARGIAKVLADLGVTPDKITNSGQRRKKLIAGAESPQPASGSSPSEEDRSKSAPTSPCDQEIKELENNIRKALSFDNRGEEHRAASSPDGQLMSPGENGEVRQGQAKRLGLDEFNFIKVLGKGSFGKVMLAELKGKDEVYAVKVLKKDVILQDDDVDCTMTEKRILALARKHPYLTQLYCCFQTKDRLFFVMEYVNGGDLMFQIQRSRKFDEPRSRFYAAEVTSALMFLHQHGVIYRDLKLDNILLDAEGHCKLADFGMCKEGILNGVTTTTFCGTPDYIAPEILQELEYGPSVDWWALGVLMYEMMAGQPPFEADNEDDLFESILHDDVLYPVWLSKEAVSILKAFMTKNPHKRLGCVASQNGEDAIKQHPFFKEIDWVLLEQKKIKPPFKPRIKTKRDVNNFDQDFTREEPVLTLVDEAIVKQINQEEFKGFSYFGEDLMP

SMILES | residual activity [%]
CCc1nc(-c2ccc(OC)cc2)[nH]c1-c1ccncc1 | 101
O=C(O)c1ccc2c3c1cccc3c(=O)n1c3ccccc3nc21 | 113
Cc1cc(Nc2nc(-c3ccccc3)nc3ccccc23)n[nH]1 | 87.1
N#Cc1c(NC(=O)c2cccc3ccccc23)sc2c1CCCC2 | 99.1

Each compound was assayed against PRKCI (human) (UniProt P41743) in the same assay as above. Conditions: compound 0.5 µM; ATP 10 µM.

SMILES | residual activity [%]
CCc1nc(-c2ccc(OC)cc2)[nH]c1-c1ccncc1 | 101
O=C(O)c1ccc2c3c1cccc3c(=O)n1c3ccccc3nc21 | 94.6
Cc1cc(Nc2nc(-c3ccccc3)nc3ccccc23)n[nH]1 | 82.6
N#Cc1c(NC(=O)c2cccc3ccccc23)sc2c1CCCC2 | 95.9

Each compound was assayed against RIPK2 (human) (UniProt O43353) in the same assay as above. Conditions: compound 0.5 µM; ATP 10 µM.
Sequence of RIPK2 (human) (O43353 whole entry, looked up): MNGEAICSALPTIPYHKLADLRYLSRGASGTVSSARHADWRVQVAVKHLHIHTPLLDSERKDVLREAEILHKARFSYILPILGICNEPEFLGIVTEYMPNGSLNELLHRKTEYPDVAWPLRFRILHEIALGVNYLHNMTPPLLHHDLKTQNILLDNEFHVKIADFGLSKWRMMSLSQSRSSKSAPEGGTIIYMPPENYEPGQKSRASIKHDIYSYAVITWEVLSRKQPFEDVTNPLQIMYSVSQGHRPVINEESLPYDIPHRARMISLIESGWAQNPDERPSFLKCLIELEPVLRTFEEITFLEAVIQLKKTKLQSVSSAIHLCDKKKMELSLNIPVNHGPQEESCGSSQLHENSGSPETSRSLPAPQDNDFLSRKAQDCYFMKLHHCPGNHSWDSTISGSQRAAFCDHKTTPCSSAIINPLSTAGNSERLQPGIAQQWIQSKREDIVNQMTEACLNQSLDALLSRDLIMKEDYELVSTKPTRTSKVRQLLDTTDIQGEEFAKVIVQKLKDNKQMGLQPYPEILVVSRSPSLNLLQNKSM

SMILES | residual activity [%]
CCc1nc(-c2ccc(OC)cc2)[nH]c1-c1ccncc1 | 95
O=C(O)c1ccc2c3c1cccc3c(=O)n1c3ccccc3nc21 | 78.4
Cc1cc(Nc2nc(-c3ccccc3)nc3ccccc23)n[nH]1 | 70.4
N#Cc1c(NC(=O)c2cccc3ccccc23)sc2c1CCCC2 | 81.3

These compounds were tested against FLT3 (human) (UniProt P36888) in the same assay as above. Conditions: compound 0.5 µM; ATP 10 µM.

SMILES | residual activity [%]
CCc1nc(-c2ccc(OC)cc2)[nH]c1-c1ccncc1 | 91.4
O=C(O)c1ccc2c3c1cccc3c(=O)n1c3ccccc3nc21 | 68.9
